Results from patent publication US20240050409A1, “Methods and Compositions for Treating Psychotic Disorders” (SOUND PHARMACEUTICALS INCORPORATED, priority 2014, published 2024).
“Also recorded” adds a separate entry of the source. Like-named read-outs stand apart in the source and are kept apart here.

Key:
[1] = tested on: NVHL rats; assay: Prepulse inhibition of the acoustic startle response (PPI) in NVHL rats; assay type: in vivo, Sprague-Dawley rats; settings: adult NVHL rats
Protocol: To assess whether juvenile oxidative stress leads to behavioral deficits, a behavioral paradigm was used for testing in both animal models and schizophrenia patients. Prepulse inhibition of the acoustic startle response (PPI) is a measure of sensorimotor gating that is reduced in patients (Geyer and Braff, 1987) and NVHL rats (Lipska et al., 1995). PPI was tested in adult sham (n=11), NAC-treated sham (n=12), NVHL (n=9), and NAC-treated NVHL rats (n=17). In addition to loss of PVI maturation and electrophysiological anomalies, developmental oxidative stress in juvenile NVHL rats can cause schizophrenia-relevant adult behavioral deficits.
The beneficial effect of NAC treatment includes a large postnatal treatment that starts prior to the lesion and stops once rats become young adults. For full translational value one determines whether NAC is efficacious when started at an age that corresponds to the time when prodromal stages can be identified in humans. In another set of rats, NAC was administered in the drinking water starting at P35, an age that in rats is equivalent to early adolescence. For PPI deficits was tested in adult SHAM (n=15), untreated NVHL (n=12), and NAC-treated NVHL rats (n=14).
Ebselen is a glutathione peroxidase (GPx) mimic (Muller et al., 1984) that induces GPx expression (Kil et al., 2007) and enhances GSH levels in neurons, replenishing GSH depleted by neurotoxic mechanisms (Pawlas and Malecki, 2007). PPI was tested in adult vehicle-treated SHAM (n=10), Ebselen-treated SHAM (n=7), vehicle-treated NVHL (n=8), and Ebselen-treated NVHL rats (n=9), and Ebselen treatment during adolescence reversed PPI deficits in NVHL rats (as shown in FIG. 15D).
In another group of rats, the effects of the NADPH oxidase inhibitor Apocynin was assessed while delivering through juvenile and adolescent stages. PPI was tested in adult vehicle-treated SHAM (n=10), apocynin-treated SHAM (n=11), vehicle treated NHVL (n=7), and apocynin-treated NVHL (n=5). As illustrated in FIG. 15C a reversal of PPI deficits was observed.
Antioxidant pretreatment regimen: NAC (BioAdvantexPharma, Mississauga, Ontario, Canada) was administered in the drinking water at 900 mg/l. NAC treatment started at P5 or at P35, and previous work in mice has shown that NAC consumed by the dam is transmitted to the pups through her milk (das Neves Duarte et al., 2012). NAC treatment ended at P50. Fresh solutions were prepared every 2-3 days. Ebselen (Sound Pharmaceuticals Inc., Seattle, WA) was administered i.p. 5 days a week starting at P35 until the day of PPI testing (P60). Stock ebselen solution (20 mg/ml DMSO, frozen aliquots) was diluted 1:5 in sterile water and administered at a dose of 10 mg/kg. Control animals received an equivalent concentration of DMSO diluted 1:5 in water. Apocynin (Sigma-Aldrich, St. Louis, MO) was administered in the drinking water at a target dose of 100 mg/kg (Nwokocha et al., 2013). Prior to weaning at P21, drinking water contained a dose of 2 g apocynin per 0.5 1 of water, to ensure delivery through the dam's milk. Apocynin concentration was lowered after weaning to 750 mg/1 to best approximate the target dose. Treatment lasted from P5 to P50 with fresh solutions prepared every other day.
Prepulse inhibition: Starting at P60, both male and female rats were tested for PPI, as described previously (Feleder et al., 2010). As PPI deficits in NVHL rats are most evident when rats are challenged with apomorphine (Lipska et al., 1995), we injected apomorphine (0.1 mg/kg, i.p.) immediately prior to the PPI test session. Rats were placed in a sound- attenuated startle chamber (San Diego Instruments, San Diego, CA) with a 70 dB background white noise. After a 5 min adaptation period, the PPI test was initiated with pseudorandom trials every 15 to 25 seconds. Either pulse (120 dB), prepulse (75 dB, 80 dB, or 85 dB), no pulse or prepulse +pulse were delivered. […]

[2] = Solubility of ebselen in aqueous solutions; assay type: physicochemical; settings: 25° Celsius
Protocol: Ebselen is the only active ingredient administered in a formulation. […] Ebselen acts as a catalyst and is not consumed during detoxification reactions (Muller et. al, 1988). An embodiment of an ebselen formulation is >99% pure as confirmed by HPLC. The synthesis of this formulation is provided by Rhodia Pharma Solutions and includes capsules that are hermetically sealed in blister packs. Each capsule contains 200 mg the ebselen formulation or SPI-1000 (placebo).

[3] = Ph-1 placebo-controlled, randomized, single ascending dose study: pharmacokinetics; assay type: in vivo; settings: humans, single dose 200 mg to 1600 mg
Protocol: (§1) Ebselen has excellent oral availability (Fisher et al., 1988). Brain level was about 20% of the plasma level (Imai, et al., 2001, Ullrich, et al., 1996). […] A Ph-1 study was conducted in 32 humans in a placebo-controlled, randomized, single ascending dose design. Ebselen ranged from 200 mg to 1600 mg in the formulation. (1) Pharmacokinetics: The PK parameters of ebselen and its three metabolites were published (Lynch, et al., 2009). […] The tabulated side effects were published in Lynch, et al., 2009.

[4] = tested on: healthy males and females; assay: Ph-1 placebo-controlled, randomized, single ascending dose study: safety; assay type: in vivo, humans
Protocol: as §1

[5] = Repeat dosing 28-day study, monkey; settings: cynomolgus monkey, in vivo, Cynomolgus monkeys, read-out: no-observable-effect-level (NOAEL)
Protocol: (§2) Seven acute and repeated dose toxicology studies were conducted in Sprague-Dawley rats, Sinclair miniature swine, and Cynomolgus monkey, and three genotoxicology studies.

[6] = Repeat dosing 28-day study, mini-pig; set-up: species or system Sinclair miniature swine; settings: Sinclair, minipig, in vivo, read-out: no-observable-effect-level (NOAEL)
Protocol: as §2

[7] = tested on: rats; assay: Repeat dosing 28-day study, rats; assay type: in vivo, Sprague-Dawley rats
Protocol: as §2

[8] = tested on: rats; assay: Chronic toxicity studies 26 and 52 weeks, rats; assay type: in vivo
Protocol: as §2

[9] = tested on: mini-pigs; assay: Chronic toxicity studies 26 and 52 weeks, mini-pigs; assay type: in vivo
Protocol: as §2

[10] = in vivo; cited from earlier work
[11] = in vivo; cited from earlier work; remark: listed apart in the source
[12] = tested on: neurons; settings: cited from earlier work
[13] = tested on: N-methyl-D-asparatate receptors redox modulatory site; settings: cited from earlier work
[14] = 32 humans, single dose 200 mg to 1600 mg

COc1cc(C(C)=O)ccc1O [Apocynin]
effect on PPI deficit ([1]; drinking water, target dose 100 mg/kg, P5 to P50, 100 mg/kg): prevented; also recorded: reversal
effect on PPI deficit ([1]; drinking water, target dose 100 mg/kg, P5 to P50, listed as apocynin, 100 mg/kg): significant lesion by treatment interaction

O=c1c2ccccc2[se]n1-c1ccccc1 [Ebselen, 2-Phenyl-1,2-benzisoselenazol-3(2H)-one]
solubility in aqueous solutions [2]: slightly soluble
Cmax ([3]; both sexes, human, in vivo, oral, range of means): 30.3 to 83.4 ng/mL
AUC(0-t) ([3]; both sexes, human, in vivo, oral, range of means, read-out: mean AUC0-t): 117 to 881 ng·h/mL
half-life ([3]; both sexes, human, in vivo, oral, range of means, read-out: mean t1/2): 384 to 1000 min
Tmax ([3]; both sexes, human, in vivo, oral, range of medians, read-out: median Tmax): 1.5 to 2.3 h
predominate metabolite [3]: 2-glucuronyl selenobenzanilide
serious adverse events or discontinuation due to an AE [4, 14]: no serious adverse events
severity of AEs [4, 14]: mild or moderate
trends in clinical laboratory and ECG findings [4, 14]: No treatment- or dose-related trends
safety and tolerability ([4]; capsules, single oral dose up to 1600 mg): safe and well tolerated
NOAEL at 28 days [5]: 2000 mg/kg
NOAEL at 28 days [6]: > 2000 mg/kg
no-observable-effect-level (NOAEL) [7]: not identified
non-toxic effect level [8]: 31.6 mg/kg
non-toxic effect level [9]: 178 mg/kg
effect on PPI deficit ([1]; 10 mg/kg i.p. 5 days a week from P35 until PPI testing, 10 mg/kg): reversed; also recorded: significant lesion status by treatment interaction
effect on PPI deficit ([1]; 10 mg/kg i.p. 5 days a week from P35 until PPI testing, listed as ebselen, 10 mg/kg): prevented
oral availability [10]: excellent
brain level as share of the plasma level [11]: about 20%
GSH levels in neurons (basal and stressed conditions) [12]: increased
glutamate-induced GSH depletion ([12]; combined with glutamate): neutralized; also recorded: Neuroprotective effect
GSH levels in neurons (basal and stressed conditions) ([12]; listed as ebselen): dose-dependently increases; also recorded: dose-dependent rise
effect on NMDA receptor redox modulatory site [13]: modulates
neuron viability [13]: increases
